Assay results published in patent US20230233569A1 (Revolution Medicines, Inc., priority 2020, published 2023).
“And” between values parts separate entries of the source, which are not always exact repeats. Equal values may be shown once. Read-outs that look alike come from different tables or passages of the source.

Experiments:
[1] = tested on: Capan-1 (K-Ras G12V); assay: CellTiter-Glo cell viability assay, 5-day treatment; assay type: cell-based; conditions: Homo sapiens, CAPAN-1, 120 h, 5-day treatment; read-out: Capan-1 Cell Viability assay data (K-Ras G12V, IC50)
Summary of the method: (§1)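 Luminescence read-out after 5 days of compound exposure, with plates first brought to room temperature for roughly 30 minutes. Values are percent of averaged DMSO wells, fitted by four-parameter logistic regression.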

[2] = tested on: NCI-H358 (K-Ras G12C); assay: as above; assay type: cell-based; conditions: Homo sapiens, NCI-H358, 120 h, 5-day treatment; read-out: H358 Cell Viability assay data (K-Ras G12C, IC50)
Summary of the method: as §1

[3] = target: KRAS G12C (Homo sapiens, UniProt P01116+P62937, G12C); assay: Disruption of BRAF RBD interaction with Ras (FRET / MOA assay, with Cyclophilin A); assay type: biochemical
Summary of the method: (§2)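 IC50 values reflect loss of K-Ras binding to BRAF RBD, read as a lowered TR-FRET ratio compared with DMSO, driven by compound-mediated K-Ras:Cyclophilin A complex formation. Compound top dose 30 μM final, 3-fold steps, 3 h incubation at 25 °C before a 1.5 h antibody step.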

[4] = target: KRAS G12D (Homo sapiens, UniProt P01116+P62937, G12D); assay: as above; assay type: biochemical
Summary of the method: as §2

[5] = target: KRAS G12S (Homo sapiens, UniProt P01116+P62937, G12S); assay: as above; assay type: biochemical
Summary of the method: as §2

[6] = target: KRAS G12V (Homo sapiens, UniProt P01116+P62937, G12V); assay: as above; assay type: biochemical
Summary of the method: as §2

[7] = target: KRAS G13C (Homo sapiens, UniProt P01116+P62937, G13C); assay: as above; assay type: biochemical
Summary of the method: as §2

[8] = target: KRAS G13D (Homo sapiens, UniProt P01116+P62937, G13D); assay: as above; assay type: biochemical
Summary of the method: as §2

[9] = target: KRAS WT (Homo sapiens, UniProt P01116+P62937); assay: as above; assay type: biochemical
Summary of the method: as §2

[10] = target: NRAS G12C (Homo sapiens, UniProt P01111+P62937, G12C); assay: as above; assay type: biochemical
[11] = read-out: KRAS G12C FRET data, IC50
[12] = read-out: KRAS G12D FRET data, IC50
[13] = read-out: KRAS G12S FRET data, IC50
[14] = KRAS G12V, read-out: KRAS G12V FRET data IC50
[15] = read-out: KRAS G13C FRET data, IC50
[16] = KRAS G13D, read-out: KRAS G13D FRET data IC50
[17] = KRAS WT, read-out: KRAS WT FRET data IC50
[18] = NRAS G12C, read-out: NRAS G12C FRET data IC50

Chain of KRAS G12S (P01116 1-169 isoform P01116-2 G12S limits assumed): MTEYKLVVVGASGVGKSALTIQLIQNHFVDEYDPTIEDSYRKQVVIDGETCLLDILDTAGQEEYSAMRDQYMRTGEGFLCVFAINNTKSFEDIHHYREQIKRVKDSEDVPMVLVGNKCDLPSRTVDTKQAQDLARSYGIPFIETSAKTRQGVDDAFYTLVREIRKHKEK
Chain of KRAS G12S (P62937 whole entry): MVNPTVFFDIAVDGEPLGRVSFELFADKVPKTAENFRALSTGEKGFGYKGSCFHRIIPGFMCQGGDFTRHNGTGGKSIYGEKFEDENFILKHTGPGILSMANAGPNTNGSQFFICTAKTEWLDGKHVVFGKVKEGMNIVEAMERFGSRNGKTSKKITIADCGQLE
Chain of KRAS WT (P01116 1-169 isoform P01116-2 limits assumed): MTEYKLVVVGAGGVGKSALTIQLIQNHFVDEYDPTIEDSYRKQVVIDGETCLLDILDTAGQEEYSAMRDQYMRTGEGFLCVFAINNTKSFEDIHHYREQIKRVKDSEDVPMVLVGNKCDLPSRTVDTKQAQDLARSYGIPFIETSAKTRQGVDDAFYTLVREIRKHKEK
Chain of KRAS WT (P62937 whole entry): as the sequence (P62937 whole entry) above
Chain of KRAS G12C (P01116 1-169 isoform P01116-2 G12C): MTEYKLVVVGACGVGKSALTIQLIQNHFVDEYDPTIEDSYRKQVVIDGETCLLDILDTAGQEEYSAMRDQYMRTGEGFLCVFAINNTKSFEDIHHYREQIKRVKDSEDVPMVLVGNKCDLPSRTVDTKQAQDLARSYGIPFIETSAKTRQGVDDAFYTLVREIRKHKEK
Chain of KRAS G12C (P62937 whole entry): as the sequence (P62937 whole entry) above
Chain of KRAS G12D (P01116 1-169 isoform P01116-2 G12D limits assumed): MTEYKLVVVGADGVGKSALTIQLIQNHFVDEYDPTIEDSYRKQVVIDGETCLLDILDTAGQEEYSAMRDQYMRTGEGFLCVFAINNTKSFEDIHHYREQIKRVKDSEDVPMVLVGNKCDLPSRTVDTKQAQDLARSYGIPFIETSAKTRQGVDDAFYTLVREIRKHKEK
Chain of KRAS G12D (P62937 whole entry): as the sequence (P62937 whole entry) above
Chain of KRAS G12V (P01116 1-169 isoform P01116-2 G12V limits assumed): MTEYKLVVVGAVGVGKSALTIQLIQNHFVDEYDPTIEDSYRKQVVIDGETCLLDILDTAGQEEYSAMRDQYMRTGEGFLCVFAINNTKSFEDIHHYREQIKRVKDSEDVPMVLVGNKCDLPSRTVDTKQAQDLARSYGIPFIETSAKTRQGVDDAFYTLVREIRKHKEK
Chain of KRAS G12V (P62937 whole entry): as the sequence (P62937 whole entry) above
Chain of KRAS G13C (P01116 1-169 isoform P01116-2 G13C): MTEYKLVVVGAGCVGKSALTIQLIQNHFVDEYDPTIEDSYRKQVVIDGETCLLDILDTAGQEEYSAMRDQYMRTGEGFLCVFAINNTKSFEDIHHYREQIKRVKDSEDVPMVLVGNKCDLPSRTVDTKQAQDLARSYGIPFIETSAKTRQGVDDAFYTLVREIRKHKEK
Chain of KRAS G13C (P62937 whole entry): as the sequence (P62937 whole entry) above
Chain of KRAS G13D (P01116 1-169 isoform P01116-2 G13D limits assumed): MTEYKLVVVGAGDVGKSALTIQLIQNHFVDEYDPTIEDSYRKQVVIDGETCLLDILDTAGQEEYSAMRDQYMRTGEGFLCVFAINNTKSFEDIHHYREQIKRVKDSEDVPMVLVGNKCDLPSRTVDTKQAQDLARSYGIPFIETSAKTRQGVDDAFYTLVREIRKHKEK
Chain of KRAS G13D (P62937 whole entry): as the sequence (P62937 whole entry) above
Chain of NRAS G12C (P01111 whole entry G12C): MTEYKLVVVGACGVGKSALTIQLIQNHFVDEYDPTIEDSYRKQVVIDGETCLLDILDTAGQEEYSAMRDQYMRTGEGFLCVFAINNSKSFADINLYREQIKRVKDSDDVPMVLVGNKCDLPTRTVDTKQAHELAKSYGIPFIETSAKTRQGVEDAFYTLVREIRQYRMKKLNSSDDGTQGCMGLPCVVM
Chain of NRAS G12C (P62937 whole entry): as the sequence (P62937 whole entry) above

Structure (SMILES)	IC50 [2] [nM]	IC50 [3, 11] [nM]	IC50 [4, 12] [nM]	IC50 [5, 13] [nM]	IC50 [6, 14]	IC50 [7, 15] [nM]	IC50 [8, 16]	IC50 [9, 17]	IC50 [10, 18] [nM]	IC50 [1] [nM]	IC50 ([3]; KRAS G12C FRET data, IC50) [nM]	IC50 ([4]; KRAS G12D FRET data, IC50) [nM]	IC50 ([5]; KRAS G12S FRET data, IC50) [nM]	IC50 ([6]; KRAS G12V FRET data IC50, KRAS G12V) [nM]	IC50 ([7]; KRAS G13C FRET data, IC50) [nM]	IC50 ([8]; KRAS G13D FRET data IC50, KRAS G13D) [nM]	IC50 ([9]; KRAS WT FRET data IC50, KRAS WT) [nM]	IC50 ([10]; NRAS G12C FRET data IC50, NRAS G12C) [nM]
CCn1c(-c2cnccc2COC)c2c3cc(ccc31)-c1cc(O)cc(c1)C[C@H](NC(=O)C1CCCC1C(F)F)C(=O)N1CCC[C@H](N1)C(=O)OCC(C)(C)C2 (some centres unmarked) [Example A261]	1000 to 10000	1000 to 10000	> 10000	1000 to 10000	1000 to 10000 nM	1000 to 10000	1000 to 10000 nM	1000 to 10000 nM	1000 to 10000	1000 to 10000								
CCN1C[C@@H](C(=O)N(C)[C@H](C(=O)N[C@H]2Cc3cc(O)cc(c3)-c3ccc4c(c3)c(c(-c3cnccc3COC)n4CC)CC(C)(C)COC(=O)[C@@H]3CCCN(N3)C2=O)C(C)C)CC1=O [Example A262]	1000 to 10000									1000 to 10000	10 to 100	1000 to 10000	100 to 1000	100 to 1000	100 to 1000	100 to 1000	100 to 1000	100 to 1000
CCn1c(-c2cccnc2[C@H](C)OC)c2c3cc(ccc31)-c1csc(n1)C[C@H](NC(=O)[C@H](C(C)C)N(C)C(=O)N1CC(N3CCN(C)CC3)C1)C(=O)N1CCC[C@H](N1)C(=O)OCC(C)(C)C2 [Example A288]	10 to 100	10 to 100	100 to 1000	100 to 1000	100 to 1000 nM	100 to 1000	100 to 1000 nM	100 to 1000 nM	10 to 100	10 to 100								
CCn1c(-c2cccnc2[C@H](C)OC)c2c3cc(ccc31)-c1csc(n1)C[C@H](NC(=O)[C@H](C(C)C)N(C)C(=O)N1CCOC3(CN(C)C3)C1)C(=O)N1CCC[C@H](N1)C(=O)OCC(C)(C)C2 [Example A294]	10 to 100	100 to 1000	100 to 1000	100 to 1000	100 to 1000 nM	100 to 1000	100 to 1000 nM	100 to 1000 nM	100 to 1000	100 to 1000								
CCn1c(-c2cccnc2[C@H](C)OC)c2c3cc(ccc31)-c1csc(n1)C[C@H](NC(=O)[C@H](C(C)C)N(C)C(=O)N1CCN(C)C3(CC3)C1)C(=O)N1CCC[C@H](N1)C(=O)OCC(C)(C)C2 [Example A311]	10 to 100	100 to 1000	100 to 1000	100 to 1000	100 to 1000 nM	100 to 1000	100 to 1000 nM	100 to 1000 nM	100 to 1000	100 to 1000								

Further lines, with some results ahead:

IC50 [2] [nM]	IC50 [3, 11] [nM]	IC50 [4, 12] [nM]	IC50 [5, 13] [nM]	IC50 [6, 14]	IC50 [7, 15] [nM]	IC50 [8, 16]	IC50 [9, 17]	IC50 [10, 18] [nM]	Structure (SMILES)	IC50 [1] [nM]	IC50 ([3]; KRAS G12C FRET data, IC50) [nM]	IC50 ([4]; KRAS G12D FRET data, IC50) [nM]	IC50 ([5]; KRAS G12S FRET data, IC50) [nM]	IC50 ([6]; KRAS G12V FRET data IC50, KRAS G12V) [nM]	IC50 ([7]; KRAS G13C FRET data, IC50) [nM]	IC50 ([8]; KRAS G13D FRET data IC50, KRAS G13D) [nM]	IC50 ([9]; KRAS WT FRET data IC50, KRAS WT) [nM]	IC50 ([10]; NRAS G12C FRET data IC50, NRAS G12C) [nM]
10 to 100	10 to 100	100 to 1000	10 to 100	100 to 1000 nM and 10 to 100 nM	10 to 100	100 to 1000 nM and 10 to 100 nM	100 to 1000 nM and 10 to 100 nM	10 to 100	CCN1CC(C(=O)N(C)[C@H](C(=O)N[C@H]2Cc3cc(O)cc(c3)-c3ccc4c(c3)c(c(-c3cccnc3[C@H](C)OC)n4CC)CC(C)(C)COC(=O)[C@@H]3CCCN(N3)C2=O)C(C)C)CC1=O (some centres unmarked) [Example A248]	100 to 1000								
1000 to 10000	100 to 1000	100 to 1000	100 to 1000	1000 to 10000 nM	100 to 1000	100 to 1000 nM	100 to 1000 nM	100 to 1000	CCn1c(-c2cnccc2COC)c2c3cc(ccc31)-c1cc(O)cc(c1)C[C@H](NC(=O)[C@H](C(C)C)N(C)C(=O)[C@@H]1CCCN(C)C1)C(=O)N1CCC[C@H](N1)C(=O)OCC(C)(C)C2 [Example A259]	1000 to 10000								
100 to 1000	100 to 1000	1000 to 10000	100 to 1000	1000 to 10000 nM	1000 to 10000	1000 to 10000 nM	100 to 1000 nM	100 to 1000	CCn1c(-c2cnccc2COC)c2c3cc(ccc31)-c1cc(O)cc(c1)C[C@H](NC(=O)[C@H](C(C)C)N(C)C(=O)O[C@H]1CCOC1)C(=O)N1CCC[C@H](N1)C(=O)OCC(C)(C)C2 [Example A260]	1000 to 10000								
